Several values for one entry are separate records, joined by “and”; a condition that tells them apart may be missing. Equal values may be shown once. Read-outs that look alike come from different tables or passages of the source.
Key:
[1] = tested on: Mtb growth in J774 macrophage-like cells; assay: J774 infection in 96-well plates, mKO fluorescence 6 days post-infection; format: cell-based, Mycobacterium tuberculosis; conditions: for Inhibition of Mtb growth in J774 cells: 10 μM; for % Growth: Fig. 2D, DMSO = 100
Method: For J774 infection in 96-well plates, 1.8 × 10^5 J774 cells were seeded per well in 180 μl of J774 infection media 1 day prior to infection. On the day of the assay, log-phase Mtb constitutively expressing mKO were pelleted and resuspended in 1 ml basal uptake buffer, passed 6× through a tuberculin syringe with a 25 G × 5/8″ needle, then resuspended in J774 infection media to a final OD600 = 0.2. Media was removed from 96-well plate containing the J774 cells, with 140 μl of fresh J774 infection media added back to each well. A volume of 40 μl of the Mtb suspension at OD600 = 0.2 was added to each well, followed by addition of appropriate concentration of compound or DMSO in a 20-μl final volume in J774 infection media (compound final concentration 10 μM, rifampicin final concentration 5 μM, DMSO final concentration 0.1%/well). Bacterial mKO fluorescence was read immediately after infection using a Biotek Synergy Neo2 microplate reader (bottom read monochromator, excitation 543/10 nm, emission 565/10 nm), and again 6 days post-infection. Plates were kept in humidified ziplock bags in a 37°C, 5% CO2 incubator. mKO fluorescence in DMSO-treated control samples were defined as 100% growth, and fluorescence observed in treatment conditions calculated as a percentage from that set value.

[2] = tested on: J774 cells; assay: Intracellular drug accumulation assay in J774 cells (LC-MS); conditions: for Intracellular accumulation in J774 cells: 24 hours; for nmol/106 cells: Fig. 3F
[3] = tested on: Mtb CDC1551; assay: Intrabacterial drug accumulation assay (LC-MS); conditions: 24-hour exposure, 7H9 pH 7 ± 250 mM NaCl
[4] = tested on: Mtb-infected J774 cells; conditions: for nmol/106 cells: Fig. 3F
[5] = tested on: Mtb; assay: Mtb growth assay in standard 7H9 medium (OD600); conditions: Fig. 2F
Text: (§1) Bacterial growth was tracked by measuring OD600 every 3 days for 12 days. […] Bacterial growth was tracked by measurement of OD600 every 3 days over 12 days.

[6] = tested on: WT Mtb (Erdman) in primary murine BMDMs; assay: Primary murine bone marrow-derived macrophage infection, CFU; format: cell-based, Mycobacterium tuberculosis; conditions: for Effect on bacterial load / Mtb growth in primary murine BMDMs: 10 μM, 8-day infection time course, vs DMSO; for CFU/ml: Fig. 2E, 10 µM
Method: C57BL/6J wild-type mice (Jackson Laboratories) were used for extraction of BMDMs. Cells were harvested and expanded in DMEM containing 10% FBS, 15% L-cell conditioned media, 2 mM L-glutamine, 1 mM sodium pyruvate, and penicillin/streptomycin as needed in a 37°C incubator in a 5% CO2 atmosphere. […] Macrophages were lysed with water containing 0.01% sodium dodecyl sulfate and a dilution series of the samples plated on 7H10 agar for CFU determination.

[7] = tested on: Mtb; assay: Mtb growth assay in cholesterol medium (OD600); conditions: for Inhibition of Mtb growth in cholesterol media: 10 μM, OD600 over 12 days; for OD600: Fig. 2G
Text: as §1

[8] = tested on: CDC1551(rv2390c′::GFP) reporter Mtb strain; conditions: for Normalized % induction: Fig. 2C, DMSO = 100; for Ability to increase rv2390c′::GFP reporter signal in high [Cl−]: pH 7
[9] = tested on: CDC1551(rv2390c′::GFP) reporter Mtb strain, response to high [Cl−]; assay: microbe, parasite or virus in culture; format: cell-based, Mycobacterium tuberculosis; conditions: primary screen, 10 µM
[10] = tested on: Mtb growth in cholesterol media; set-up: method as in PubChem AID 1259343; conditions: ref PubChem AID 1259343; cited from earlier work

Row | Compound | Inhibition of Mtb growth in J774 cells ([1]; 6 days post-infection) | % Growth ([1]; average of 4 replicates) | % Growth ([1]; individual replicates) | OD600 ([5]; day 3, average) | OD600 ([5]; day 3, individual replicates) | OD600 ([5]; day 6, average) | OD600 ([5]; day 6, individual replicates) | OD600 ([5]; day 9, average) | OD600 ([5]; day 9, individual replicates) | OD600 ([5]; day 12, average) | OD600 ([5]; day 12, individual replicates) | Inhibition of Mtb growth in cholesterol media [7] | OD600 ([7]; day 3, average) | OD600 ([7]; day 3, individual replicates) | OD600 ([7]; day 6, average) | OD600 ([7]; day 6, individual replicates) | OD600 ([7]; day 9, average) | OD600 ([7]; day 9, individual replicates) | OD600 ([7]; day 12, average) | OD600 ([7]; day 12, individual replicates) | also measured
1 | COc1ncc(CN2CCN(c3nc4ccccc4o3)CC2)cn1 [JSF-4271, 2-(4-((2-methoxypyrimidin-5-yl)methyl)piperazin-1-yl)benzo[d]oxazole] | loss of the ability to inhibit Mtb growth | 107.949% | 101.522% and 116.46% and 111.935% and 101.878% | 0.2 | 0.2 and 0.22 and 0.18 | 0.4067 | 0.42 (2×) and 0.38 | 0.5267 | 0.54 (2×) and 0.5 | 0.6733 | 0.68 (2×) and 0.66 | no longer inhibited Mtb growth | 0.1 | 0.1 | 0.28 | 0.3 (2×) and 0.24 | 0.4467 | 0.46 (2×) and 0.42 | 0.52 | 0.52 and 0.5 and 0.54 | Intracellular accumulation in J774 cells [2]: minimal accumulation; Intrabacterial accumulation in Mtb [3]: decreased accumulation; Accumulation in Mtb-infected J774 cells ([4]; 10 μM, 24 hours, 5 days post-infection): minimal accumulation; Effect on bacterial load / Mtb growth in primary murine BMDMs [6]: loss of the ability to inhibit Mtb growth; CFU/ml ([6]; day 2, average): 489333 CFU/ml; CFU/ml ([6]; day 2, individual replicates): 446000 CFU/ml and 482000 CFU/ml and 540000 CFU/ml; CFU/ml ([6]; day 4, average): 960000 CFU/ml; CFU/ml ([6]; day 4, individual replicates): 1040000 CFU/ml and 1100000 CFU/ml and 740000 CFU/ml; CFU/ml ([6]; day 6, average): 2286667 CFU/ml; CFU/ml ([6]; day 6, individual replicates): 1960000 CFU/ml and 2060000 CFU/ml and 2840000 CFU/ml; CFU/ml ([6]; day 8, average): 6800000 CFU/ml; CFU/ml ([6]; day 8, individual replicates): 6000000 CFU/ml and 5400000 CFU/ml and 9000000 CFU/ml; Normalized % induction ([8]; average of 3 replicates): 98.3426%; Normalized % induction ([8]; individual replicates): 93.208% and 98.8641% and 102.956%; Ability to increase rv2390c′::GFP reporter signal in high [Cl−] [8]: lost the ability
2 | c1ccc2oc(N3CCN(Cc4cncnc4)CC3)nc2c1 [JSF-4297, 2-(4-(pyrimidin-5-ylmethyl)piperazin-1-yl)benzo[d]oxazole] | loss of the ability to inhibit Mtb growth | 108.514% | 102.242% and 116.384% and 110.602% and 104.828% | 0.1933 | 0.18 (2×) and 0.22 | 0.4 | 0.4 and 0.42 and 0.38 | 0.5467 | 0.56 (2×) and 0.52 | 0.7 | 0.7 and 0.72 and 0.68 | no longer inhibited Mtb growth | 0.09333 | 0.1 (2×) and 0.08 | 0.3133 | 0.32 (2×) and 0.3 | 0.4533 | 0.46 (2×) and 0.44 | 0.5 | 0.48 and 0.5 and 0.52 | Intracellular accumulation in J774 cells [2]: no detectable accumulation; nmol/106 cells ([2]; Experiment 1 - J774, average): 0 nmol/106 cells; nmol/106 cells ([2]; Experiment 1 - J774, individual replicates): 0 nmol/106 cells; nmol/106 cells ([2]; Experiment 2 - J774, average): 0 nmol/106 cells; nmol/106 cells ([2]; Experiment 2 - J774, individual replicates): 0 nmol/106 cells; nmol/106 cells ([2]; Experiment 3 - J774, average): 0 nmol/106 cells; nmol/106 cells ([2]; Experiment 3 - J774, individual replicates): 0 nmol/106 cells; nmol/106 cells ([4]; Experiment 1 - Mtb-infected J774, average): 0.006771 nmol/106 cells; nmol/106 cells ([4]; Experiment 1 - Mtb-infected J774, individual replicates): 0.007341 nmol/106 cells and 0.006486 nmol/106 cells (2×); nmol/106 cells ([4]; Experiment 2 - Mtb-infected J774, average): 0.007288 nmol/106 cells; nmol/106 cells ([4]; Experiment 3 - Mtb-infected J774, average): 0.039 nmol/106 cells; nmol/106 cells ([4]; Experiment 3 - Mtb-infected J774, individual replicates): 0.03001 nmol/106 cells and 0.048 nmol/106 cells; Effect on bacterial load / Mtb growth in primary murine BMDMs [6]: loss of the ability to inhibit Mtb growth; Normalized % induction ([8]; average of 3 replicates): 100.379%; Normalized % induction ([8]; individual replicates): 88.9158% and 107.146% and 105.074%; Ability to increase rv2390c′::GFP reporter signal in high [Cl−] [8]: lost the ability
3 | CCSc1ncc(CN2CCN(c3nc4ccccc4s3)CC2)cn1 [JSF-4298, 2-(4-((2-(ethylthio)pyrimidin-5-yl)methyl)piperazin-1-yl)benzo[d]thiazole] | continuing to demonstrate the phenotypes seen with the parental C6 compound | 72.2652% | 65.6342% and 77.3722% and 76.7437% and 69.3109% | 0.1867 | 0.2 and 0.18 (2×) | 0.38 | 0.36 and 0.38 and 0.4 | 0.5067 | 0.5 (2×) and 0.52 | 0.6467 | 0.64 (2×) and 0.66 | continuing to demonstrate the phenotypes seen with the parental C6 compound | 0.06 | 0.06 | 0.09333 | 0.08 and 0.1 (2×) | 0.1333 | 0.14 (2×) and 0.12 | 0.1533 | 0.16 (2×) and 0.14 | Normalized % induction ([8]; average of 3 replicates): 128.692%; Normalized % induction ([8]; individual replicates): 127.109% and 127.993% and 130.974%; Ability to increase rv2390c′::GFP reporter signal in high [Cl−] [8]: continuing to demonstrate the phenotypes seen with the parental C6 compound
4 | c1ccc2oc(N3CCN(Cc4ccc(C5CCCO5)s4)CC3)nc2c1 (stereo not drawn) [PubChem SID: 340463409, reference compound] |  |  |  |  |  |  |  |  |  |  |  |  |  |  |  |  |  |  |  |  | Dysregulation of Mtb Cl− response in original rv2390c′::GFP screen [9]: did not demonstrate dysregulation; Call in screen for inhibition of Mtb growth in cholesterol media [10]: having antitubercular activity in cholesterol media
5 | CO[C@H]1/C=C/O[C@@]2(C)Oc3c(C)c(O)c4c(O)c(c(/C=N/N5CCN(C)CC5)c(O)c4c3C2=O)NC(=O)/C(C)=C\C=C\[C@H](C)[C@H](O)[C@@H](C)[C@@H](O)[C@@H](C)[C@H](OC(C)=O)[C@@H]1C [Rif, rifampicin, reference compound] |  | 10.744% | 10.4241% and 10.7119% and 11.5524% and 10.2878% |  |  |  |  |  |  |  |  |  |  |  |  |  |  |  |  |  | % growth of Mtb in J774 cells, average ([1]; 5 μM rifampicin, 6 days post-infection, DMSO = 100%, Fig 1H): 8.618%

From publication PMC8351955, “Targeting Mycobacterium tuberculosis response to environmental cues for the development of effective antitubercular drugs” (PLoS Biology, 2021)
